This note sets out measurements from paper PMC10931659, “Structural Characterization and Functional Analysis of Mevalonate Kinase from Tribolium castaneum (Red Flour Beetle)” (International Journal of Molecular Sciences, 2024).

The target in series [1] is T1, TcMevK (Tribolium castaneum, UniProt D2A4R0, V21A).
T1 construct: gene AUGUSTUS-3.0.2_15408; N-terminal His6 tag (pET28a-derived vector), expressed in E. coli BL21(DE3), Ni-chelating and Superdex 200 purified
T1 sequence (D2A4R0 1-396 V21A): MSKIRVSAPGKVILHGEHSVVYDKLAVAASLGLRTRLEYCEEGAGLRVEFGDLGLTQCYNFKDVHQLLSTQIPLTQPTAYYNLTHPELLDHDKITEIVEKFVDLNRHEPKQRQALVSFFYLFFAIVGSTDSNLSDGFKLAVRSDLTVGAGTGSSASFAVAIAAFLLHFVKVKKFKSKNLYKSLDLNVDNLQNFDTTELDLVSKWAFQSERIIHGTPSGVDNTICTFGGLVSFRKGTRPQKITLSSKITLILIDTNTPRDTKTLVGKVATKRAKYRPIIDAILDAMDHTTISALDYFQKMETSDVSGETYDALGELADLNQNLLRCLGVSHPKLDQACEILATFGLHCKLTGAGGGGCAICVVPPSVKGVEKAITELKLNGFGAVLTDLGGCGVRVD
As to the kind of experiment: intrinsic fluorescence quenching, excitation […] nm. The class given is binding. As to conditions: read-out: KD Value for Mev.

Series [2] has as its target T2, TcMevK (Tribolium castaneum, UniProt D2A4R0, V264A).
T2 construct: gene AUGUSTUS-3.0.2_15408; N-terminal His6 tag (pET28a-derived vector), expressed in E. coli BL21(DE3), Ni-chelating and Superdex 200 purified
T2 sequence (D2A4R0 1-396 V264A): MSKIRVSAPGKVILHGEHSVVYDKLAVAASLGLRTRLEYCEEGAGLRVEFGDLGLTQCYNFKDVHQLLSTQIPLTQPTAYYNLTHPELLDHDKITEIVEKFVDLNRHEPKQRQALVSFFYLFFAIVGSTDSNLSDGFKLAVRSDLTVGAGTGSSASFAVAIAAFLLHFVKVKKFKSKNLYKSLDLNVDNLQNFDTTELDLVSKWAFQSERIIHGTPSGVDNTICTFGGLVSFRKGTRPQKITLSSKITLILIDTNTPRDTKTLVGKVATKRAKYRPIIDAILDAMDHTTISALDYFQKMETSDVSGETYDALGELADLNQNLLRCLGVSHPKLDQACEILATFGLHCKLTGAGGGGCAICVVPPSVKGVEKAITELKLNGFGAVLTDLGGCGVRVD
As to the kind of experiment: intrinsic fluorescence quenching, excitation […] nm. Type of series: binding. As to conditions: read-out: KD Value for Mev.

Series [3] concerns the target T3, TcMevK (Tribolium castaneum, UniProt D2A4R0, S217A).
T3 construct: gene AUGUSTUS-3.0.2_15408; N-terminal His6 tag (pET28a-derived vector), expressed in E. coli BL21(DE3), Ni-chelating and Superdex 200 purified
T3 sequence (D2A4R0 1-396 S217A): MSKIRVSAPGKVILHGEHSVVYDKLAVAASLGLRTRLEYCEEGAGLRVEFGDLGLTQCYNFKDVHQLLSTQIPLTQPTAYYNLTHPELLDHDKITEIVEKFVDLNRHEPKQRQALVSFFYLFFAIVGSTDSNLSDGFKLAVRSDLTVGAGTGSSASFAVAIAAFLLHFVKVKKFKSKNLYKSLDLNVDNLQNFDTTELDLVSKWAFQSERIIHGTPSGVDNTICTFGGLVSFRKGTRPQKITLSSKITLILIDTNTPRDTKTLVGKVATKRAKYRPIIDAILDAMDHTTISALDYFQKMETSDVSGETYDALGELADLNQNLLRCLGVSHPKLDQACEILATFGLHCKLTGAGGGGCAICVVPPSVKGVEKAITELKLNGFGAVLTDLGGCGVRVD
As to the kind of experiment: intrinsic fluorescence quenching, excitation […] nm. Type of series: binding. The conditions noted are these: read-out: KD Value for Mev.

Series [4] deals with T4, TcMevK (Tribolium castaneum, UniProt D2A4R0).
T4 construct: gene AUGUSTUS-3.0.2_15408; N-terminal His6 tag (pET28a-derived vector), expressed in E. coli BL21(DE3), Ni-chelating and Superdex 200 purified
T4 sequence (D2A4R0 1-396): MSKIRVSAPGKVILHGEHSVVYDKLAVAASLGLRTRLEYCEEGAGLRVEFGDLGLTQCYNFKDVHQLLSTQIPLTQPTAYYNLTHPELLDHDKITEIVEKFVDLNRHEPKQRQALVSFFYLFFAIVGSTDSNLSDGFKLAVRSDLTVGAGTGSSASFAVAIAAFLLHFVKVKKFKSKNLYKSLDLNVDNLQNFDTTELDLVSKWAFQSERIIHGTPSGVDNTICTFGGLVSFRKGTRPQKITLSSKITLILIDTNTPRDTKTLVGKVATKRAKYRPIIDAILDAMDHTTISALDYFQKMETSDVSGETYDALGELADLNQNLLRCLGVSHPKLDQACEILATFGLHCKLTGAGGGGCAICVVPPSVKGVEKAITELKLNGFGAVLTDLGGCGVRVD
Briefly: intrinsic fluorescence quenching, excitation […] nm. Type of series: binding. As to conditions: read-out: KD Value for Mev.

Series [5] addresses T5, TcMevK (Tribolium castaneum, UniProt D2A4R0, K11A).
T5 construct: gene AUGUSTUS-3.0.2_15408; N-terminal His6 tag (pET28a-derived vector), expressed in E. coli BL21(DE3), Ni-chelating and Superdex 200 purified
T5 sequence (D2A4R0 1-396 K11A): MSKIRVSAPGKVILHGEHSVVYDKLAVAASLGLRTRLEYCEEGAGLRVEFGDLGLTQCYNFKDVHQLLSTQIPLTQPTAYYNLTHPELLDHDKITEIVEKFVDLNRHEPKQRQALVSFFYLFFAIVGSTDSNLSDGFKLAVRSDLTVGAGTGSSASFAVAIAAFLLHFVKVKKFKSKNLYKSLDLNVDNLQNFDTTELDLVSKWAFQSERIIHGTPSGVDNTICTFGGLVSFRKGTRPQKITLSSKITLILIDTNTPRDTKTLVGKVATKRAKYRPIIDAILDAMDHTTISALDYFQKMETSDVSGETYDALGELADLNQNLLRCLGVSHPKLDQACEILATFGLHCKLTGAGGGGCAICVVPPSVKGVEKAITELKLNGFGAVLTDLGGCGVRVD
As to the kind of experiment: intrinsic fluorescence quenching, excitation […] nm. Type of series: binding. As to conditions: read-out: KD Value for Mev.

For series [6], the target named is T6, TcMevK (Tribolium castaneum, UniProt D2A4R0, D220A).
T6 construct: gene AUGUSTUS-3.0.2_15408; N-terminal His6 tag (pET28a-derived vector), expressed in E. coli BL21(DE3), Ni-chelating and Superdex 200 purified
T6 sequence (D2A4R0 1-396 D220A): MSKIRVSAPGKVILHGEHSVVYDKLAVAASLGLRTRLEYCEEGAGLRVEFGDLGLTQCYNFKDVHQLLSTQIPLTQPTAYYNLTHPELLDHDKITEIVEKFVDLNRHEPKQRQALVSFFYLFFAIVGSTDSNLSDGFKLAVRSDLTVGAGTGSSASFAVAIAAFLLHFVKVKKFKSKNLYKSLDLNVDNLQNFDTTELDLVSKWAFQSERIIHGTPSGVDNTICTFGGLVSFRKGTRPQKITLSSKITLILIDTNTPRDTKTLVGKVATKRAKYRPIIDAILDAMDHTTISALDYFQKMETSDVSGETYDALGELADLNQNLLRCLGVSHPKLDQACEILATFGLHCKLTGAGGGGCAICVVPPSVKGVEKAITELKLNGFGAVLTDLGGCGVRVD
As to the kind of experiment: intrinsic fluorescence quenching, excitation […] nm. Type of series: binding. The conditions noted are these: read-out: KD Value for Mev.

The target of series [7] is T7, TcMevK (Tribolium castaneum, UniProt D2A4R0, K234A).
T7 construct: gene AUGUSTUS-3.0.2_15408; N-terminal His6 tag (pET28a-derived vector), expressed in E. coli BL21(DE3), Ni-chelating and Superdex 200 purified
T7 sequence (D2A4R0 1-396 K234A): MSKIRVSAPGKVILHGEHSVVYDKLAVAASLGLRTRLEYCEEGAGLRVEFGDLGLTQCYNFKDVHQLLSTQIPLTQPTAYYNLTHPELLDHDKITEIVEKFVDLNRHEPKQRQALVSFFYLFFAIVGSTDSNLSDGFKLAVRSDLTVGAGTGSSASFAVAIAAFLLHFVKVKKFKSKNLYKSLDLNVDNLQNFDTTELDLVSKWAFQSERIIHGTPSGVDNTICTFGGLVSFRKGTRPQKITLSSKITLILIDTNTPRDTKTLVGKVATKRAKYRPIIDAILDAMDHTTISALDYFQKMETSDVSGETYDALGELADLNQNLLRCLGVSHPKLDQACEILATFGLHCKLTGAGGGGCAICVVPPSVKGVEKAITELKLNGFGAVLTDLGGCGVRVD
As to the kind of experiment: intrinsic fluorescence quenching, excitation […] nm. The class given is binding. As to conditions: read-out: KD Value for Mev.

Substrate in series [8]: C[C@@](O)(CCO)CC(=O)O
Briefly: purified protein. The class given is biochemical, Tribolium castaneum. The conditions noted are these: 5 mM ATP, 16 mM MgCl2, 75 mM KCl; Mev 0–500 μM; pH and temperature not stated for this assay.

Regarding `C[C@@](O)(CCO)CC(=O)O` [mevalonate], the Kd came out at 51.7 ± 2.16 µM in series [1]; 57.1 ± 1.83 µM in series [2]; 70.2 ± 1.06 µM in series [3]; 30 ± 0.93 µM in series [4]; 75.8 ± 0.84 µM in series [5]; 47.5 ± 2.17 µM in series [6]. Also, the Kd in series [7] was found to be 89.5 ± 2.45 µM.

B1: TcMevK (Tribolium castaneum) (protein)
chain: MSKIRVSAPGKVILHGEHSVVYDKLAVAASLGLRTRLEYCEEGAGLRVEFGDLGLTQCYNFKDVHQLLSTQIPLTQPTAYYNLTHPELLDHDKITEIVEKFVDLNRHEPKQRQALVSFFYLFFAIVGSTDSNLSDGFKLAVRSDLTVGAGTGSSASFAVAIAAFLLHFVKVKKFKSKNLYKSLDLNVDNLQNFDTTELDLVSKWAFQSERIIHGTPSGVDNTICTFGGLVSFRKGTRPQKITLSSKITLILIDTNTPRDTKTLVGKVATKRAKYRPIIDAILDAMDHTTISALDYFQKMETSDVSGETYDALGELADLNQNLLRCLGVSHPKLDQACEILATFGLHCKLTGAGGGGCAICVVPPSVKGVEKAITELKLNGFGAVLTDLGGCGVRVD
notes: N-terminal His6 tag (pET28a-derived vector), expressed in E. coli BL21(DE3), Ni-chelating and Superdex 200 purified
B1: the Km in series [8] turned out to be 32.71 ± 1.09 µM.

For orientation: Kd means the constant that tells how readily two partners part at equilibrium. The term Km denotes the concentration of substrate that gives half-maximal velocity.
